Results: ChEMBL document CHEMBL3400001, “Tricyclic 1,5-naphthyridinone oxabicyclooctane-linked novel bacterial topoisomerase inhibitors as broad-spectrum antibacterial agents-SAR of left-hand-side moiety (Part-2)” (Bioorg Med Chem Lett, 2015)
Values after ≈ are worked out from the molar mass of the structure shown.

What was measured:
[1] = target: T1, Voltage-gated inwardly rectifying potassium channel KCNH2 (Homo sapiens, UniProt Q12809); assay: Inhibition of human ERG by MK499 binding assay
Escherichia coli = assay: Antimicrobial activity against Escherichia coli ATCC 25922 by micro broth dilution or agar based method; type: functional
Enterococcus faecium = assay: Antimicrobial activity against vancomycin-resistant Enterococcus faecium A2373 expressing VanA by micro broth dilution or agar based method; type: functional
Staphylococcus aureus [2] = assay: Antimicrobial activity against Staphylococcus aureus Smith by micro broth dilution or agar based method; type: functional
Acinetobacter baumannii = assay: Antimicrobial activity against Acinetobacter baumannii IID876 by micro broth dilution or agar based method; type: functional
Enterococcus faecalis = assay: Antimicrobial activity against Enterococcus faecalis ATCC 29212 MB by micro broth dilution or agar based method; type: functional
Staphylococcus aureus [3] = assay: Ratio of MIC for quinolone-resistant Staphylococcus aureus MS5935 to MIC for quinolone-[…]; type: functional
Pseudomonas aeruginosa = assay: Antimicrobial activity against Pseudomonas aeruginosa PAO1 by micro broth dilution or agar based method; type: functional
Streptococcus pneumoniae = assay: Antimicrobial activity against Streptococcus pneumoniae IID554 by micro broth dilution or agar based method; type: functional
Haemophilus influenzae = assay: Antimicrobial activity against Haemophilus influenzae ATCC 49247 by micro broth dilution or agar based method; type: functional
Moraxella catarrhalis = assay: Antimicrobial activity against Moraxella catarrhalis ATCC 25238 by micro broth dilution or agar based method; type: functional
[4] = target: T1, Voltage-gated inwardly rectifying potassium channel KCNH2; assay: Inhibition of human ERG expressed in CHO cells by Patch express assay; type: cell-based
Staphylococcus aureus [5] = assay: Antimicrobial activity against quinolone-resistant Staphylococcus aureus MS5935; type: functional
Staphylococcus aureus [6] = assay: Antimicrobial activity against quinolone-sensitive Staphylococcus aureus MS5935
[7] = Escherichia coli, ATCC 25922, read-out: MIC
[8] = Enterococcus faecium, A2373, read-out: MIC
[9] = Staphylococcus aureus, Smith, read-out: MIC
[10] = Acinetobacter baumannii, IID876, read-out: MIC
[11] = Enterococcus faecalis, ATCC 29212 MB, read-out: MIC
[12] = Pseudomonas aeruginosa, PAO1, read-out: MIC
[13] = Streptococcus pneumoniae, IID554, read-out: MIC

T1 sequence (Q12809 whole entry): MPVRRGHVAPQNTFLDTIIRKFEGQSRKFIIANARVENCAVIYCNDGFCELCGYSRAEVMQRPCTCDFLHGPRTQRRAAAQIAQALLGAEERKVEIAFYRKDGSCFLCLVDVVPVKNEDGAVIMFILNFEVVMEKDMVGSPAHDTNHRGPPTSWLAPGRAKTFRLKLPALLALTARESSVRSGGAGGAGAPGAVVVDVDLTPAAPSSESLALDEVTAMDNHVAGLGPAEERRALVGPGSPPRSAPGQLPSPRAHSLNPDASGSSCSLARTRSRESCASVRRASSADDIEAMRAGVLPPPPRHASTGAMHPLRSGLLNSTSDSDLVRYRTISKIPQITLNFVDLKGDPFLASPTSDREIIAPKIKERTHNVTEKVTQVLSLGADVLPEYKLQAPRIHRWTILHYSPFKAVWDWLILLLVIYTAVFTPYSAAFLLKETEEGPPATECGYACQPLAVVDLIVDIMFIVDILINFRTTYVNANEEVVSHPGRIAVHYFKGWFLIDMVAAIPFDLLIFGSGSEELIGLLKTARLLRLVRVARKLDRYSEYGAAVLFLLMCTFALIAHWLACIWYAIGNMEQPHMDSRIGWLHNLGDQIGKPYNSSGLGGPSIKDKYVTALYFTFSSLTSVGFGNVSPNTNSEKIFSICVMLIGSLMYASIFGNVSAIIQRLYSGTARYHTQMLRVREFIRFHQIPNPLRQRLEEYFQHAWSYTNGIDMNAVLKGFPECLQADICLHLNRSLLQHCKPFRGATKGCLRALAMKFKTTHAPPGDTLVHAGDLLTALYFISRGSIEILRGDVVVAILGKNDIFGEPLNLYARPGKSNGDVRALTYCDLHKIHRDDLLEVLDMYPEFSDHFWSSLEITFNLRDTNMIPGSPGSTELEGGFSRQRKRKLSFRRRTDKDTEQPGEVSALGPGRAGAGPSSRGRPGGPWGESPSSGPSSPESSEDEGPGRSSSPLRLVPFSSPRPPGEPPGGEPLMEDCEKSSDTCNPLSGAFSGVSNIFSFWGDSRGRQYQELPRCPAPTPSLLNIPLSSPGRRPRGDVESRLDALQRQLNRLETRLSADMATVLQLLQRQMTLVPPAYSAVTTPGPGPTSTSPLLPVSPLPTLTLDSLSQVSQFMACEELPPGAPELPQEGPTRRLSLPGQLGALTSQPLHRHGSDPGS

Row | Structure (SMILES) | IC50 [1] | MIC (Escherichia coli; [7]) | MIC (Enterococcus faecium; [8]) | MIC (Staphylococcus aureus [2]; [9]) | MIC (Acinetobacter baumannii; [10]) | MIC (Enterococcus faecalis; [11]) | Ratio (Staphylococcus aureus [3]) | MIC (Pseudomonas aeruginosa; [12]) | MIC (Streptococcus pneumoniae; [13]) | MIC (Haemophilus influenzae) | MIC (Moraxella catarrhalis) | other results
1 | O=C1COc2ccc(CNC34CCC(C[C@]5(O)Cn6c(=O)ccc7ncc(Cl)c5c76)(CC3)OC4)nc2N1 | 53.3 µM | 8 µg/mL (≈ 15.3 µM) | 8 µg/mL (≈ 15.3 µM) | 0.5 µg/mL (≈ 0.954 µM) | 8 µg/mL (≈ 15.3 µM) | 4 µg/mL (≈ 7.63 µM) | <4 | 32 µg/mL (≈ 61.1 µM) | 1 µg/mL (≈ 1.91 µM) | – | – | –
2 | CO[C@]1(CC23CCC(NCc4ccc5c(n4)NC(=O)CO5)(CC2)CO3)Cn2c(=O)ccc3ncc(F)c1c32 | 24.5 µM | 32 µg/mL (≈ 61.4 µM) | 32 µg/mL (≈ 61.4 µM) | 8 µg/mL (≈ 15.3 µM) | 32 µg/mL (≈ 61.4 µM) | 32 µg/mL (≈ 61.4 µM) | <4 | 32 µg/mL (≈ 61.4 µM) | 32 µg/mL (≈ 61.4 µM) | – | – | –
3 | O=C1COc2ccc(CNC34CCC(CC5(O)Cn6c(=O)cc(Cl)c7ncc(F)c5c76)(CC3)OC4)nc2N1 (racemic) | > 60 µM | 8 µg/mL (≈ 14.8 µM) | 32 µg/mL (≈ 59 µM) | 2 µg/mL (≈ 3.69 µM) | 8 µg/mL (≈ 14.8 µM) | 8 µg/mL (≈ 14.8 µM) | <4 | 32 µg/mL (≈ 59 µM) | 2 µg/mL (≈ 3.69 µM) | 8 µg/mL (≈ 14.8 µM) | 1 µg/mL (≈ 1.85 µM) | –
4 | Cc1cc(=O)n2c3c(c(F)cnc13)[C@](O)(CC13CCC(NCc4ccc5c(n4)NC(=O)CO5)(CC1)CO3)C2 | > 60 µM | 8 µg/mL (≈ 15.3 µM) | 8 µg/mL (≈ 15.3 µM) | 0.5 µg/mL (≈ 0.959 µM) | 0.5 µg/mL (≈ 0.959 µM) | 4 µg/mL (≈ 7.67 µM) | <4 | 32 µg/mL (≈ 61.4 µM) | 1 µg/mL (≈ 1.92 µM) | 4 µg/mL (≈ 7.67 µM) | 0.5 µg/mL (≈ 0.959 µM) | –
5 | Cc1cc(=O)n2c3c(c(F)cnc13)[C@@](O)(CC13CCC(NCc4ccc5c(n4)NC(=O)CO5)(CC1)CO3)C2 | > 60 µM | 32 µg/mL (≈ 61.4 µM) | 32 µg/mL (≈ 61.4 µM) | 8 µg/mL (≈ 15.3 µM) | 2 µg/mL (≈ 3.83 µM) | 16 µg/mL (≈ 30.7 µM) | <4 | 32 µg/mL (≈ 61.4 µM) | 8 µg/mL (≈ 15.3 µM) | 16 µg/mL (≈ 30.7 µM) | 2 µg/mL (≈ 3.83 µM) | –
6 | O=C1COc2ccc(CNC34CCC(C[C@@]5(O)Cn6c(=O)c(F)cc7ncc(F)c5c76)(CC3)OC4)nc2N1 | > 60 µM | 16 µg/mL (≈ 30.4 µM) | 32 µg/mL (≈ 60.9 µM) | 4 µg/mL (≈ 7.61 µM) | 32 µg/mL (≈ 60.9 µM) | 16 µg/mL (≈ 30.4 µM) | <4 | 32 µg/mL (≈ 60.9 µM) | 4 µg/mL (≈ 7.61 µM) | 8 µg/mL (≈ 15.2 µM) | 1 µg/mL (≈ 1.9 µM) | –
7 | O=C1COc2ccc(CNC34CCC(CC5Cn6c(=O)ccc7ncc(F)c5c76)(CC3)OC4)nc2N1 (stereo in doubt; 10) | 12.3 µM | – | – | – | – | – | – | – | – | – | – | MIC (Escherichia coli): 2 µg/mL (≈ 4.07 µM); MIC (Enterococcus faecium): 4 µg/mL (≈ 8.14 µM); MIC (Staphylococcus aureus [2]): 0.5 µg/mL (≈ 1.02 µM); IC50 [4]: 21.6 µM; MIC (Acinetobacter baumannii): 8 µg/mL (≈ 16.3 µM); MIC (Enterococcus faecalis): 2 µg/mL (≈ 4.07 µM); MIC (Pseudomonas aeruginosa): 16 µg/mL (≈ 32.6 µM); MIC (Streptococcus pneumoniae): 0.5 µg/mL (≈ 1.02 µM)
8 | O=C1COc2ccc(CNC34CCC(CC5(F)Cn6c(=O)ccc7ncc(F)c5c76)(CC3)OC4)nc2N1 (racemic) | – | 4 µg/mL (≈ 7.85 µM) | 4 µg/mL (≈ 7.85 µM) | 0.25 µg/mL (≈ 0.491 µM) | 1 µg/mL (≈ 1.96 µM) | 2 µg/mL (≈ 3.93 µM) | – | 32 µg/mL (≈ 62.8 µM) | 0.5 µg/mL (≈ 0.981 µM) | – | – | –
9 | O=C1COc2ccc(CNC34CCC(C[C@@]5(O)CN6C(=O)CCc7ncc(F)c5c76)(CC3)OC4)nc2N1 | > 60 µM | 32 µg/mL (≈ 62.8 µM) | 32 µg/mL (≈ 62.8 µM) | 8 µg/mL (≈ 15.7 µM) | 32 µg/mL (≈ 62.8 µM) | 32 µg/mL (≈ 62.8 µM) | <4 | 32 µg/mL (≈ 62.8 µM) | 32 µg/mL (≈ 62.8 µM) | – | – | –
10 | C[C@H]1COc2c(N3CCN(C)CC3)c(F)cc3c(=O)c(C(=O)O)cn1c23.C[C@H]1COc2c(N3CCN(C)CC3)c(F)cc3c(=O)c(C(=O)O)cn1c23.O [LEVOFLOXACIN] | – | – | – | – | – | – | <4 | – | – | – | – | MIC (Staphylococcus aureus [5]): > 16 µg/mL; MIC (Staphylococcus aureus [6]): 0.25 µg/mL
11 | O=C1COc2ccc(CNC34CCC(CC5Cn6c(=O)ccc7ncc(F)c5c76)(CC3)OC4)nc2N1 (racemic) | 23 µM | – | – | – | – | – | – | – | 0.25 µg/mL (≈ 0.509 µM) | – | – | MIC (Escherichia coli): 1 µg/mL (≈ 2.03 µM); MIC (Staphylococcus aureus [2]): 0.12 µg/mL (≈ 0.244 µM); IC50 [4]: 30 µM; MIC (Pseudomonas aeruginosa): 8 µg/mL (≈ 16.3 µM)
12 | O=C1COc2ccc(CNC34CCC(C[C@@]5(O)Cn6c(=O)ccc7ncc(Cl)c5c76)(CC3)OC4)nc2N1 | > 60 µM | 32 µg/mL (≈ 61.1 µM) | 32 µg/mL (≈ 61.1 µM) | 4 µg/mL (≈ 7.63 µM) | 32 µg/mL (≈ 61.1 µM) | 16 µg/mL (≈ 30.5 µM) | <4 | 32 µg/mL (≈ 61.1 µM) | 4 µg/mL (≈ 7.63 µM) | – | – | –
